Converted amounts (≈) assume the structure as drawn.
How the values were obtained:
E. coli 25922 = test: Antibacterial activity, microbroth dilution MIC (Table 1); format: cell-based, Escherichia coli; details: Escherichia coli; microbroth dilution; control Gram-negative E. coli 25922 strain; read-out: MIC, 25922
Outline: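 Broth microdilution; endpoint = no macroscopic growth; value = lowest inhibiting concn, μg/mL.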

E. coli LZ3111 = test: Antibacterial activity, MIC, quinolone resistant strain (Table 2); format: cell-based; details: Escherichia coli, LZ3111, read-out: MIC LZ3111
Outline: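 Microbroth dilution method; MIC (μg/mL) is the lowest drug concentration preventing macroscopically visible growth under test conditions.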

[1] = tested on: Staphylococcus aureus (S. aureus) 29213; test: Antibacterial activity, microbroth dilution MIC (Table 1); format: cell-based; details: microbroth dilution, Gram-positive S. aureus 29213, read-out: MIC, 29213
Outline: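 Values are MICs (μg/mL): the smallest drug amount at which macroscopically visible bacterial growth is absent under assay conditions, from a microdilution method in broth.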

[2] = tested on: Escherichia coli (E. coli) BAS849; test: as above; format: cell-based; details: microbroth dilution, super sensitive Gram-negative E. coli BAS849, read-out: MIC, BAS849
Outline: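 Each strain is exposed to test compound in a microbroth dilution series; visible growth is scored macroscopically, and the lowest growth-free concentration is recorded as MIC in μg/mL.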

Structure (SMILES) | MIC (E. coli 25922) [mg/L] | MIC (E. coli LZ3111) [mg/L] | MIC [1] [mg/L] | MIC [2] [mg/L]
CCc1c(-c2ccc3c(c2)cc(CN2C[C@H]4C[C@@H](N(Cc5ccccc5)Cc5ccccc5)C[C@H]4C2)n3C)[nH]c(=O)c(C(=O)O)c1O [Cpd 286, 6-(2-(((3aR,5r,6aS)-5-(dibenzylamino)hexahydrocyclopenta[c]pyrrol-2(1H)-yl)methyl)-1-methyl-1H-indol-5-yl)-5-ethyl-4-hydroxy-2-oxo-1,2-dihydropyridine-3-carboxylic acid] | 12.5 to 150 (≈ 19.8 to 238 µM) | 12.5 to 150 (≈ 19.8 to 238 µM) | 12.5 to 150 (≈ 19.8 to 238 µM) | 12.5 to 150 (≈ 19.8 to 238 µM)
CCc1c(-c2ccc3c(c2)cc(CNCC2CCCCC2)n3C)[nH]c(=O)c(C(=O)O)c1O.Cl [Cpd 222, 6-(2-((cyclohexylmethylamino)methyl)-1-methyl-1H-indol-5-yl)-5-ethyl-4-hydroxy-2-oxo-1,2-dihydropyridine-3-carboxylic acid hydrochloride] | < 1 | 12.5 to 150 | 1 to 3.5 | < 1
CCc1c(-c2ccc3c(c2)cc(CN2C[C@@H]4[C@H](C2)[C@H]4N(C)C)n3C)[nH]c(=O)c(C(=O)O)c1O [Cpd 197, 6-(2-(((1R,5S,6s)-6-(dimethylamino)-3-azabicyclo[3.1.0]hexan-3-yl)methyl)-1-methyl-1H-indol-5-yl)-5-ethyl-4-hydroxy-2-oxo-1,2-dihydropyridine-3-carboxylic acid] | 1 to 3.5 (≈ 2.22 to 7.77 µM) | 12.5 to 150 (≈ 27.7 to 333 µM) | 3.5 to 12.5 (≈ 7.77 to 27.7 µM) | < 1
CCc1cc(C(=O)O)c(=O)[nH]c1-c1ccc2c(c1)cc(CN1C[C@H]3CCC[C@@H](NC)[C@H]3C1)n2C [Cpd 148, 5-ethyl-6-(1-methyl-2-(((3aR,4R,7aS)-4-(methylamino)-1H-isoindol-2(3H,3aH,4H,5H,6H,7H,7aH)-yl)methyl)-1H-indol-5-yl)-2-oxo-1,2-dihydropyridine-3-carboxylic acid] | 3.5 to 12.5 (≈ 7.57 to 27 µM) | 12.5 to 150 (≈ 27 to 324 µM) | 12.5 to 150 (≈ 27 to 324 µM) | 1 to 3.5 (≈ 2.16 to 7.57 µM)
CCc1cc(C(=O)O)c(=O)[nH]c1-c1ccc2nc(CN(CC)CC)cn2c1.Cl.Cl [Cpd 63, 6-(2-((diethylamino)methyl)imidazo[1,2-a]pyridin-6-yl)-5-ethyl-2-oxo-1,2-dihydropyridine-3-carboxylic acid dihydrochloride] | 12.5 to 150 | 12.5 to 150 | 12.5 to 150 | 12.5 to 150
CCc1c(-c2ccc3c(c2)cc(CN2CCCCC2CCOC)n3C)[nH]c(=O)c(C(=O)O)c1O (stereo not drawn) [Cpd 259, 5-ethyl-4-hydroxy-6-(2-((2-(2-methoxyethyl)piperidin-1-yl)methyl)-1-methyl-1H-indol-5-yl)-2-oxo-1,2-dihydropyridine-3-carboxylic acid] | 3.5 to 12.5 (≈ 7.49 to 26.7 µM) | 12.5 to 150 (≈ 26.7 to 321 µM) | 3.5 to 12.5 (≈ 7.49 to 26.7 µM) | < 1
CCc1c(-c2ccc3c(c2)cc(CNCc2ccccc2OC)n3C)[nH]c(=O)c(C(=O)O)c1O [Cpd 293, 5-ethyl-4-hydroxy-6-(2-((2-methoxybenzylamino)methyl)-1-methyl-1H-indol-5-yl)-2-oxo-1,2-dihydropyridine-3-carboxylic acid] | < 1 | 12.5 to 150 (≈ 27.1 to 325 µM) | 3.5 to 12.5 (≈ 7.58 to 27.1 µM) | < 1
CCc1cc(C(=O)O)c(=O)[nH]c1-c1ccc2c(c1)cc(CN1CCc3ccccc3C1)n2C [Cpd 134, 6-(2-((3,4-dihydroisoquinolin-2(1H)-yl)methyl)-1-methyl-1H-indol-5-yl)-5-ethyl-2-oxo-1,2-dihydropyridine-3-carboxylic acid] | 1 to 3.5 (≈ 2.26 to 7.93 µM) | 12.5 to 150 (≈ 28.3 to 340 µM) | 3.5 to 12.5 (≈ 7.93 to 28.3 µM) | < 1
CCc1c(-c2ccc3c(c2)cc(CN(C)CCN(C)C)n3C)[nH]c(=O)c(C(=O)O)c1O [Cpd 303, 6-(2-(((2-(dimethylamino)ethyl)(methyl)amino)methyl)-1-methyl-1H-indol-5-yl)-5-ethyl-4-hydroxy-2-oxo-1,2-dihydropyridine-3-carboxylic acid] | 3.5 to 12.5 (≈ 8.21 to 29.3 µM) | 12.5 to 150 (≈ 29.3 to 352 µM) | 12.5 to 150 (≈ 29.3 to 352 µM) | < 1
CCc1cc(C(=O)O)c(=O)[nH]c1-c1cc(C)c2c(c1)cc(CN1CCCCC1)n2C [Cpd 100, 6-(1,7-dimethyl-2-(piperidin-1-ylmethyl)-1H-indol-5-yl)-5-ethyl-2-oxo-1,2-dihydropyridine-3-carboxylic acid] | 3.5 to 12.5 (≈ 8.59 to 30.7 µM) | 12.5 to 150 (≈ 30.7 to 368 µM) | 12.5 to 150 (≈ 30.7 to 368 µM) | < 1
CC(C)c1c(-c2ccc3c(c2)cc(CNCC2CC2)n3C)[nH]c(=O)c(C(=O)O)c1O [Cpd 321, 6-(2-((cyclopropylmethylamino)methyl)-1-methyl-1H-indol-5-yl)-4-hydroxy-5-isopropyl-2-oxo-1,2-dihydropyridine-3-carboxylic acid] | 1 to 3.5 (≈ 2.44 to 8.55 µM) | 12.5 to 150 (≈ 30.5 to 366 µM) | 3.5 to 12.5 (≈ 8.55 to 30.5 µM) | < 1
CCc1cc(C(=O)O)c(=O)[nH]c1-c1cc2cc(CN3CCOCC3)n(C)c2cc1OC [Cpd 108, 5-ethyl-6-(6-methoxy-1-methyl-2-(morpholinomethyl)-1H-indol-5-yl)-2-oxo-1,2-dihydropyridine-3-carboxylic acid] | 12.5 to 150 (≈ 29.4 to 353 µM) | 12.5 to 150 (≈ 29.4 to 353 µM) | 12.5 to 150 (≈ 29.4 to 353 µM) | 12.5 to 150 (≈ 29.4 to 353 µM)

Source: patent publication US9409905B2, “Antibacterial compounds and methods for use” (PTC THERAPEUTICS, INC., priority 2011, dated 2016)
